In brackets after ≈: the same amount, converted by molar mass.
Legend:
C. neoformans H99 [1] = assay: Antifungal susceptibility testing, CLSI broth microdilution (Example 496/497); format: cell-based, Cryptococcus neoformans; conditions: for MIC: Cryptococcus neoformans, H99, 72 h, read-out: MIC C. neoformans H99; for MIC C. neoformans H99: 50% reduction in fungal growth, 72 h, 35° C.
Excerpt: (§1) Isolates tested. C. neoformans strains H99, DUMC 118.00, DUMC 158.03 and C. gattii strains R272, and RSA-MW-3515 were obtained from Duke University. C. albicans 90028, A. fumigatus MYA3626, C. neoformans 14116, C. neoformans 76484 and the pathogenic Cryptococcus reference strains panel (ATCC MP-11) were obtained from American Type Culture Collection (ATCC, Manassas, Va., USA). The MP-11 panel consists of strains representing eight molecular types and three subtypes of C. neoformans and C. gattii.
(§2) Antifungal susceptibility testing. To establish antimicrobial activity, broth microdilution susceptibility testing was performed according to Clinical and Laboratory Standards Institute (CLSI) guidelines M27-A3 for yeasts and M38-A2 for molds. Compound 2 and analogs were first diluted in DMSO to obtain intermediate dilutions. These were further diluted in microtiter plates to obtain a final concentration of 2 to 0.002 μg/mL. 1 μl of DMSO was added to “No drug” control wells. The solutions were mixed on a plate shaker for 10 mins and plates incubated at 35° C. for 40 to 48 h (C. albicans, A. fumigatus) and 72 h (C. neoformans). The minimum concentration that led to 50% reduction in fungal growth as compared to the control (with the aid of a reading mirror) was determined as the minimum inhibitory concentration (MIC) for C. albicans and C. neoformans. The minimum concentration that led to shortening of hyphae as compared to hyphal growth in DMSO control wells was determined as the minimum effective concentration (MEC) for A. fumigatus (as read for echinocandins). The use of the MIC and MEC endpoints for Compound 2 against yeasts and molds, respectively has been described previously.

C. neoformans H99 [2] = assay: Synergy with FLC, standard microtiter checkerboard dilution; format: cell-based, Cryptococcus neoformans; conditions: synergy = FICI <0.5, MIC read at 50% inhibition
Experimental: Gwt1 inhibitors are synergistic with FLC. […] Importantly, no antagonism was observed.
as §2

C. gattii WM276 = assay: Antifungal susceptibility testing, CLSI broth microdilution (Example 496/497); format: cell-based, Cryptococcus gattii; conditions: 50% reduction in fungal growth
Excerpt: as §1, §2

C. albicans 90028 = assay: as above; format: cell-based, Candida albicans; conditions: MIC, 50% reduction in growth, 40 to 48 h
Excerpt: as §1, §2

A. fumigatus MYA3626 = assay: as above; format: cell-based, Aspergillus fumigatus; conditions: MEC, shortening of hyphae, 40 to 48 h
Excerpt: as §1, §2

C. neoformans isolates = assay: Activity vs susceptible and FLC non-susceptible/resistant strains, broth microdilution; format: cell-based, Cryptococcus neoformans
Excerpt: (§3) The activity of Gwt1 inhibitors against susceptible and FLC non-susceptible/resistant strains.
as §1
(§4) Antifungal susceptibility testing. To establish antimicrobial activity, broth microdilution susceptibility testing was performed according to Clinical and Laboratory Standards Institute (CLSI) guidelines M27-A3 for yeasts and M38-A2 for molds. Compound 2 and analogs were first diluted in DMSO to obtain intermediate dilutions. These were further diluted in microtiter plates to obtain a final concentration of 2 to 0.002 μg/mL. 1 μl of DMSO was added to “No drug” control wells. The solutions were mixed on a plate shaker for 10 mins and plates incubated at 35° C. for 40 to 48 h (C. albicans, A. fumigatus) and 72 h (C. neoformans). The minimum concentration that led to 50% reduction in fungal growth as compared to the control (with the aid of a reading mirror) was determined as the minimum inhibitory concentration (MIC) for C. albicans and C. neoformans.

C. gattii isolates = assay: as above; format: cell-based, Cryptococcus gattii
Excerpt: as §3, §1, §4

[3] = test system: strains of C. neoformans and C. gattii; assay: Activity vs Cryptococcus, summary over the strains tested; format: cell-based, Cryptococcus neoformans and Cryptococcus gattii; conditions: for MIC90: panel of 18 isolates of C. neoformans and C. gattii
Excerpt: as §3, §1, §4

C. neoformans strain H99 [4] = assay: Delayed treatment model of cryptococcal meningitis, CD-1 mice; format: in vivo, Cryptococcus neoformans; conditions: treatment from 24 h after infection, 7 days; prodrug 60 mg/kg IP QD with 100 mg/kg ABT PO; AMB 3 mg/kg IP; n=5
Experimental: Infection was initiated on Day 1 and treatment was initiated 24 h later (Day 2) rather than 1 h. Treatments were administered for 7 days (final dose on Day 8) and mice were sacrificed on Day 9 for CFU enumeration.
Delayed treatment model. […] Fungal burden data were log10 transformed and evaluated using Kruskal-Wallis tests with Dunn's Multiple Comparison Test for Post-hoc analysis (Prism 5; GraphPad Software, Inc., San Diego, Calif.). A P value of ≤0.05 is considered statistically significant

[5] = test system: C. neoformans US isolates; conditions: cited from earlier work
[6] = test system: Candida tropicalis strains; conditions: cited from earlier work
strains of C. albicans = conditions: cited from earlier work
[7] = mouse, in vivo; cited from earlier work
C. neoformans strain H99 [8] = assay: Murine model of cryptococcal meningitis, Compound 1 alone and with FLC (no ABT), CD-1 mice; format: in vivo, Cryptococcus neoformans; conditions: Compound 1 390 mg/kg PO thrice daily or FLC 80 mg/kg/day IP, 7 days, n=10
Experimental: Treatment was initiated within 1 h after infection.
Mice were weighed daily and observed for acute and chronic adverse symptoms. […] Fungal burden data were log10 transformed and evaluated using Kruskal-Wallis tests with Dunn's Multiple Comparison Test for Post-hoc analysis (Prism 5; GraphPad Software, Inc., San Diego, Calif.).

[9] = test system: 46 strains of C. neoformans; conditions: global study; cited from earlier work

Which MIC (C. neoformans H99 [1]) does the source give for Nc1ncccc1-c1cc(Cc2ccc(OCc3ccccc3)cc2)no1 here?
Its MIC is 0.031 µg/mL (≈ 0.0867 µM).

What about the “fold improved anti-C. neoformans H99 activity compared to Compound 2” value (C. neoformans H99 [1]; from MIC values) of the same molecule?
Its value is 8 fold.

And the “FICI in combination with FLC” value (C. neoformans H99 [2])?
Its value is 0.37.

With C[C@@H]1[C@H](O)[C@@H](C)/C=C/C=C/C=C/C=C/C=C/C=C/C=C/[C@H](O[C@@H]2O[C@H](C)[C@@H](O)[C@H](N)[C@@H]2O)C[C@@H]2O[C@](O)(C[C@@H](O)C[C@@H](O)[C@H](O)CC[C@@H](O)C[C@@H](O)CC(=O)O[C@H]1C)C[C@H](O)[C@H]2C(=O)O [AMB, amphotericin B, reference compound] as the molecule, how does the “MIC C. neoformans H99” value (C. neoformans H99 [1]) read?
The value was 0.25 µg/mL (≈ 0.271 µM).

And the “MIC C. gattii WM276” value (C. gattii WM276)?
Its value is 0.25 µg/mL (≈ 0.271 µM).

What about the “MIC or MEC C. albicans 90028” value (C. albicans 90028) of the same molecule?
The value was 1 µg/mL (≈ 1.08 µM).

And the “MIC or MEC A. fumigatus MYA3626” value (A. fumigatus MYA3626)?
Its value is 1 µg/mL (≈ 1.08 µM).

And the MIC (C. neoformans isolates; C. neoformans 14116)?
Its MIC is 0.25 µg/mL (≈ 0.271 µM).

And the MIC (C. neoformans isolates; C. neoformans 76484)?
The MIC was 0.25 µg/mL (≈ 0.271 µM).

And the MIC (C. neoformans isolates; C. neoformans DUMC 118.00 (FLC-resistant))?
Its MIC is 0.25 µg/mL (≈ 0.271 µM).

And the MIC (C. neoformans isolates; C. neoformans DUMC 158.03 (FLC-resistant))?
The MIC was 1 µg/mL (≈ 1.08 µM).

What about the MIC (C. neoformans isolates; C. neoformans H99) of the same molecule?
Its MIC is 0.25 µg/mL (≈ 0.271 µM).

What about the MIC (C. neoformans isolates; C. neoformans MYA-4564) of the same molecule?
Its MIC is 0.25 µg/mL (≈ 0.271 µM).

And the MIC (C. neoformans isolates; C. neoformans MYA-4565)?
The MIC was 0.125 µg/mL (≈ 0.135 µM).

What about the MIC (C. neoformans isolates; C. neoformans MYA-4566) of the same molecule?
The MIC was 0.25 µg/mL (≈ 0.271 µM).

What about the MIC (C. neoformans isolates; C. neoformans MYA-4567) of the same molecule?
Its MIC is 0.25 µg/mL (≈ 0.271 µM).

And the MIC (C. gattii isolates; C. gattii MYA-4093)?
Its MIC is 0.25 µg/mL (≈ 0.271 µM).

What about the MIC (C. gattii isolates; C. gattii MYA-4094) of the same molecule?
Its MIC is 0.25 µg/mL (≈ 0.271 µM).

And the MIC (C. gattii isolates; C. gattii MYA-4560)?
Its MIC is 0.063 µg/mL (≈ 0.0682 µM).

And the MIC (C. gattii isolates; C. gattii MYA-4561)?
Its MIC is 0.25 µg/mL (≈ 0.271 µM).

And the MIC (C. gattii isolates; C. gattii MYA-4562)?
Its MIC is 0.25 µg/mL (≈ 0.271 µM).

And the MIC (C. gattii isolates; C. gattii MYA-4563)?
Its MIC is 0.125 µg/mL (≈ 0.135 µM).

What about the MIC (C. gattii isolates; C. gattii MYA-4877) of the same molecule?
The MIC was 0.25 µg/mL (≈ 0.271 µM).

What about the MIC (C. gattii isolates; C. gattii RSA-MW-3615 (FLC-resistant)) of the same molecule?
The MIC was 0.25 µg/mL (≈ 0.271 µM).

And the “MIC GEOMEAN” value ([3]; geometric mean over the 18 isolates of C. neoformans and C. gattii)?
Its value is 0.215 µg/mL (≈ 0.233 µM).

What about the MIC90 [3] of the same molecule?
Its MIC90 is 0.25 µg/mL (≈ 0.271 µM).

What about the “reduction of log10 CFU/g lung vs untreated control, delayed treatment” value (C. neoformans strain H99 [4]) of the same molecule?
Its value is 4.02 log10 CFU/g.

And the “MIC90 versus C. neoformans, US isolates” value [5]?
Its value is 2 µg/mL (≈ 2.16 µM).

What does the source list for Nc1ncccc1-c1cc(Cc2ccc(COc3ccccn3)cc2)no1 [Compound 2]?
MIC C. neoformans H99 (C. neoformans H99 [1]): 0.25 µg/mL (≈ 0.698 µM); MIC C. gattii WM276 (C. gattii WM276): 0.125 µg/mL (≈ 0.349 µM); MIC or MEC C. albicans 90028 (C. albicans 90028): 0.008 µg/mL (≈ 0.0223 µM); MIC or MEC A. fumigatus MYA3626 (A. fumigatus MYA3626): 0.008 µg/mL (≈ 0.0223 µM); MIC90 [3]: 0.5 µg/mL (≈ 1.4 µM); FICI in combination with FLC (C. neoformans H99 [2]): 0.37; strains with synergy with FLC [6]: 9 of 10; strains with synergy with FLC (strains of C. albicans): 2 of 20; half-life in mice [7]: 1.40 to 2.75 h

What does the source list for OC(Cn1cncn1)(Cn1cncn1)c1ccc(F)cc1F [FLC, fluconazole]?
MIC (C. neoformans H99 [1]): 2 µg/mL (≈ 6.53 µM); MIC (C. gattii WM276; Cryptococcus gattii, WM276): 1 µg/mL (≈ 3.27 µM); reduction in lung fungal burden vs untreated control, monotherapy (C. neoformans strain H99 [8]): 1.30 log10 CFU/g

For OC(Cn1cncn1)(Cn1cncn1)c1ccc(F)cc1F [FUC], which “MIC90 versus 46 strains of C. neoformans” value [9] is on record?
The value was 4 µg/mL.

For OC(Cn1cncn1)(Cn1cncn1)c1ccc(F)cc1F [fluconazole, Fluconazole], which “reduction in brain fungal burden vs control group, monotherapy” value (C. neoformans strain H99 [8]) is on record?
The value was 1.04 log10 CFU/g.

For C[C@@H](c1nc(-c2ccc(C#N)cc2)cs1)[C@](O)(Cn1cncn1)c1cc(F)ccc1F [isavuconazole], which “MIC90 versus 46 strains of C. neoformans” value [9] is on record?
The value was 0.06 µg/mL.
